According to paper PMC4467156, “A new chemical inhibitor of angiogenesis and tumorigenesis that targets the VEGF signaling pathway upstream of Ras” (Oncotarget, 2015):

Columns and labels:
[1] = test system: 3T3-GFP cells; assay: Scratch wound closure assay, 3T3-GFP; format: cell-based; conditions: wound closure after 24 h, 10% FCS, tested 3.125 μM to 100 μM
From the text: Using this assay, we screened the academic library of the University of Grenoble, which is composed of 1360 original molecules. Setting the threshold of significant responses at 75% of the maximal inhibition, we identified 80 inhibitory molecules. At this stage, we reasoned that molecules that would affect the cytoskeleton dynamics or the adhesion properties of any cell type would be positive in this assay but would not represent good candidates for further development. We thus decided to perform a secondary counterscreen of the first 80 selected compounds on GFP-expressing 3T3 fibroblasts (3T3-GFP) using the same scratch assay. We then focused our interest on the 5 molecules that inhibited more strongly HMEC-GFP than 3T3-GFP wound healing. […] We synthesized a series of 30 analogs and tested them at various concentrations both on HMEC-GFP and 3T3-GFP cells. […] Dansyl and naphthalimide aromatic groups, found in COB223 and COB227 respectively, appeared very efficient. The presence of the diaminomethyl group on dansyl is critical for the activity of COB223 as shown by the lower efficiency of COB235 (IC50 is 8 times higher than that of COB223). COB223 and COB227 contain a tert-butyloxycarbonyl function (BOC group) as a second hydrophobic group. Replacement of BOC by an amino group decreased the efficiency and the specificity (compare 05-102-L-B09 vs 05-06-L-D03, or COB227 vs COB228).
Confluent cell monolayers were wounded with a plastic pipet tip, washed gently with phosphate buffer saline (PBS) and treated with complete media containing molecules, as indicated. Cells were placed at 37°C into the incubator and photographed at indicated times. Quantitation of closure of the monolayer was performed using the NIH Image J program (http://rsbweb.nih.gov/ij/). Results are expressed as percentage of wound closure at t = 24 h as compared to the initial wound at t = 0 h.

[2] = test system: 3T3 cells; assay: 3H-thymidine incorporation, 3T3; format: cell-based; conditions: 3T3 fibroblasts
Description: Cells were treated with molecules in complete medium. After 22 h, 1 μCi per well H^3 thymidine was added for 2 hours. Cells are then fixed by 10% trichloroacetic acid and harvested with 0.2N NaOH, 1% SDS. Radioactivity was measured in a beta counter.

[3] = test system: LLC/2 tumor; assay: Mouse LLC/2 tumor model; format: in vivo
Description: We chose this model because of its rapid growth in syngenic mice and its strong dependence on angiogenesis. LLC/2 cells (10^6 in 50 μL medium) were subcutaneously injected into the right flank of […] mice. Seven days after tumor inoculation, mice were given an intraperitoneal (i.p.) injection of either solvent (1.7% DMSO) or COB223 every other day. Tumor size was measured with calipers, and the volume was calculated according to the formula (L*w^2)/2 where L and […] stand for length and width respectively. All mice were killed 21 days after tumor grafting.
Tumors collected after animal sacrifice were split into two parts and fixed either in 4% paraformaldehyde (v/v) or in formalin fixative for 24 h at 4°C and embedded in paraffin and then cut into 7 μm sections. Sections were stained using specific antibodies and the avidin–biotin immunoperoxidase detection method. Endogenous peroxidase activity was quenched by pretreatment with 3% (v/v) hydrogen peroxide in methanol for 20 min. For endothelial immunohistochemistry detection, CD31 antibody (MEC13.3, BD Pharmingen) was incubated for 2 h at room temperature. The tissue sections were subsequently washed three times with PBS and incubated with biotinylated rabbit anti-rat IgG (1:250 dilution in blocking solution; Sigma-Aldrich, Saint-Quentin Fallavier, France) for 1 h at room temperature. After three PBS washes, the slides were incubated with an avidin: biotin complex (Vectastain ABC kit; Vector Laboratories, Burlingame, CA) for 45 minutes. After a final PBS wash, the immunoreactive proteins were visualized after the addition of 3,3′-diaminobenzidine (Dako, Trappes, France) for 2 min and then counterstained with hematoxylin. Control sections were treated without primary antibody.

[4] = molecular target: Met (Homo sapiens, UniProt P08581); assay: In vitro kinase assay Met; format: biochemical; conditions: concentrations up to 50 μM
Description: (§1) We first wondered whether COB223 required to be internalized to exert its biological effect. For this, we synthesized a covalent complex between BSA and COB223 and purified it. […] In vitro kinase assays were performed with a panel of purified protein-kinases involved in mitogenic signaling, including VEGFR2, FGFR1, FGFR2, PDGFRß, Met, Raf, MEK1, ERK1, ERK2, PKCα, PKCβI, PKCβII, PKCζ as indicated in Table 2. […] We then analyzed the effect of COB223 on VEGF-induced phosphorylations of VEGFR2, MEK and ERK1/2 (Figure 9). […] (Figure 9A, 9B). […] It was also specific of the p42/p44 MAP kinase pathway as activation of p38 MAP kinase phosphorylation in HUVEC cells by VEGF or serum was unaffected by COB223 (data not shown). The activation of src phosphorylation by VEGF in HUVECs was also unaffected by COB223 (data not shown).

[5] = molecular target: ERK1 (Homo sapiens, UniProt P27361); assay: In vitro kinase assay ERK1; format: biochemical; conditions: concentrations up to 50 μM
Description: as §1

[6] = non-necrotic part of treated tumors

Met, sequence (P08581 25-1390): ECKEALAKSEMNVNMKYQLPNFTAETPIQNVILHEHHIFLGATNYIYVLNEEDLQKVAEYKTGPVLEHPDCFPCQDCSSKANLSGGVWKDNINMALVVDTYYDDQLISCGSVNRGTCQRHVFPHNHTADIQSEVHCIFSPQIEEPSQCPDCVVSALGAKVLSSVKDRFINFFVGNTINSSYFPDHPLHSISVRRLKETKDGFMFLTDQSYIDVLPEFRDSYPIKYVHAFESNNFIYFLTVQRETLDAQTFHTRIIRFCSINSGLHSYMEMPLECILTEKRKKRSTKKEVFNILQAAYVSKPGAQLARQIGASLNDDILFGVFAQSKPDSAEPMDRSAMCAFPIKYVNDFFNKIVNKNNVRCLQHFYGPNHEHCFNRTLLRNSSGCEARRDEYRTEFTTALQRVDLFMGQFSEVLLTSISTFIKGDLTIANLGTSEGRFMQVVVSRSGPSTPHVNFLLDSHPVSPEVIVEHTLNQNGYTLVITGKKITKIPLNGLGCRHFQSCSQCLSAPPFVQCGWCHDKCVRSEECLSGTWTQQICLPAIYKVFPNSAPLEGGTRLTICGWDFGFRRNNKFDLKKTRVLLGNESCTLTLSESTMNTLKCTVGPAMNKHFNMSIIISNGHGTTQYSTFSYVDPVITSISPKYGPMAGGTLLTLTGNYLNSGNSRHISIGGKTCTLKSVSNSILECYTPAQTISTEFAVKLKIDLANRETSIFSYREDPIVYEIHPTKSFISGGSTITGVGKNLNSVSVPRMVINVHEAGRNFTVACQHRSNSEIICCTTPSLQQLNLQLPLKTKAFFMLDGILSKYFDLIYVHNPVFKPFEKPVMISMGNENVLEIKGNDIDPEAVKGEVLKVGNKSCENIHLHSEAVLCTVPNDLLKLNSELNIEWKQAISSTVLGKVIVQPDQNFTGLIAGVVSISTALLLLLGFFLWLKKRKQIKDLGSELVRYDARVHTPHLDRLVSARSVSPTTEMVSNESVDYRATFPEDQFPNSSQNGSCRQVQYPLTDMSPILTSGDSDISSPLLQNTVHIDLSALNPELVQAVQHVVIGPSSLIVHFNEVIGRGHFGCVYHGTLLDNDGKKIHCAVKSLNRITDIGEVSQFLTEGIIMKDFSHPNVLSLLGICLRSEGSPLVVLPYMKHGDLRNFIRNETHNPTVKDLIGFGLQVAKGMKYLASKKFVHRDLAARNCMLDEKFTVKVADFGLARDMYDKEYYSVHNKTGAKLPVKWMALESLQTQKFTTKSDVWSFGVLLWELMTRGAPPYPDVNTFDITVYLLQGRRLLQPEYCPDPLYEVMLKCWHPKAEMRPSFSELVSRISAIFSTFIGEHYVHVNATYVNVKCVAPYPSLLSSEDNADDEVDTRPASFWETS
ERK1, sequence (P27361 whole entry, species assumed): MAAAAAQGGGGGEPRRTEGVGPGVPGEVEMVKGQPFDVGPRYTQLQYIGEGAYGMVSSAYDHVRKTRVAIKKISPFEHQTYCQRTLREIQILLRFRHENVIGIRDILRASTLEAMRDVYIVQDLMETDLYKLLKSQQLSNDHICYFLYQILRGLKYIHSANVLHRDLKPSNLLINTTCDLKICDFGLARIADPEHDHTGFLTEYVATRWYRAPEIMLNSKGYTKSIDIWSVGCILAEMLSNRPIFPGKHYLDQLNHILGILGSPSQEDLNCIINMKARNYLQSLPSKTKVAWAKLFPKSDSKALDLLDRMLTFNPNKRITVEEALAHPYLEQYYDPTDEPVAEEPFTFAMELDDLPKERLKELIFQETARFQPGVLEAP

CN(C)c1cccc2c(S(=O)(=O)NCCCN3CCN(CCCNC(=O)OC(C)(C)C)CC3)cccc12 [COB223, tert-Butyl 3-(4-(3-(5-(dimethylamino)naphthalene-1-sulfonamido)propyl)piperazin-1-yl) propylcarbamate]
IC50 [1]: 25 µM
effect on cell proliferation [2]: no effect
tumors with necrotic areas larger than 15% of their surface ([3]; COB223-treated tumors (untreated 20%)): 60%
density of the microvessels (CD31) [3, 6]: significant decrease
size (luminal surface) of the microvessels (CD31) [3, 6]: significant decrease
number of phospho-ERK1/2 and phospho-histone H3 positive cells ([3]; tumor sections): significantly decreased
kinase inhibition [4]: None of them was inhibited
kinase inhibition [5]: None of them was inhibited
